# Measured values as given in a melting point compilation (Tetko et al.; mined from patent text by program, amines drawn as free bases though some values may be those of a salt).
row,Structure (SMILES),melting point
1,CCOC(=O)c1sc(I)nc1-c1ccccc1,104 to 106 °C
2,CC1(C)NC(=O)CN1C(=O)CNC(=O)OCc1ccccc1,135 to 136 °C
3,O=C(O)Cc1ccc(N2CC3=C(CCCC3)C2=O)cc1,189 to 191 °C
4,CC[C@@H]1N(c2ccc(C#N)c(Cl)c2C)C(=O)C[C@]1(C)O,156 to 158 °C
5,O=C(C(=C1SCS1)c1ccncc1)c1ccc(Cl)cc1,149 to 151 °C
6,CC1(C)SC(c2ccccc2OCCO[N+](=O)[O-])NC1C(=O)O (configuration not stated),98 to 101 °C
7,Cc1cc2c(cc1Br)C(=O)CC(C)(C)O2,95 to 96 °C
8,Cc1cccc(Cl)c1C=NS,143 °C
9,CNC(=S)NNc1ccnc2c(NC(=O)c3c(Cl)cccc3Cl)cccc12,> 258 °C
10,CC(C)NCCCC(O)c1ccccc1-c1ccccc1 (configuration not stated),78 to 80 °C
11,CCCCCc1c(C(C)=O)nc(C(C)C)c(CO)c1-c1ccc(F)cc1,69 to 70 °C
12,CN(C)Cc1c[nH]c2ccc(OCc3ccccc3)c(Cl)c12,137 to 139 °C
13,CCCN1NC(c2ccccc2)C2=C1C(=Cc1ccccc1)CSC2 (configuration not stated),106 to 118 °C
14,CN(c1ccc(Cl)cc1)c1ncccc1[N+](=O)[O-],107 to 110 °C
15,COc1cc2ncn(CCCCCl)c(=O)c2cc1OC,117 °C
16,CN1C(=O)C(C)(C)N=C(c2ccccc2F)c2cc([N+](=O)[O-])cc(Br)c21,228 °C
17,CN(C)C(=O)N(NC(=O)C(F)(F)F)c1ccc(Cl)cc1Cl,137 to 138 °C
18,COC(=O)c1ccc(I)cc1S(N)(=O)=O,176 to 177 °C
19,N#CC(c1ccc([N+](=O)[O-])cc1)c1ccccn1 (racemic),97 to 99 °C
20,O=C(O)C=CC1CC1(c1cccc(C(F)(F)F)c1)c1cccc(C(F)(F)F)c1 (configuration not stated),147 to 148 °C
21,CSCC[C@H](NC(=O)c1ccc(/C=C(/Cn2ccnc2)c2ccc(F)cc2)cc1)C(=O)O,106 °C
22,N#CC(C#N)C(=O)c1ccsc1,132 to 133 °C

row,Structure (SMILES),melting point
1,CCN1CC(=O)C(C#N)=C1N,278 to 280 °C
2,CC(=O)C(=NNc1ccc(C)cc1)Sc1ccc(Cl)cc1,133 to 136 °C
3,CCN1CCc2cc(OC)c(OC)cc2C1C1CC(C(=O)O)CCC12c1cc(OC)c(OC)cc1CCN2CC (configuration not stated),124 to 126 °C
4,Cc1nnc2c(-c3cccnc3)cccn12,112 to 115 °C
5,COCC=C(NC(C)=O)C(=O)OC,61 to 63 °C
6,CC1(C)CC(=O)C2=C(C1)NC(c1cccnc1)=NC2c1ccc(F)cc1Cl (configuration not stated),186 to 187 °C
7,Cc1ccn2cc(CCc3ccc4nc(N)oc4c3)nc2c1,262 to 264 °C
8,COc1ccc(CN2Cc3c(-c4noc(C5CC5)n4)ncn3-c3ccc(Cl)cc3C2=O)c(OC)c1,198 to 205 °C
9,CC(=O)OCC1OC(n2cc(C(I)=CI)c(=O)[nH]c2=O)C(OC(C)=O)C1OC(C)=O (configuration not stated),83 to 85 °C
10,CCCCc1nnc(-c2ccncc2)n1Cc1ccc(N)cc1,63.5 to 64.5 °C
11,CC(C)C(O)(c1ccccc1)c1cc(Cl)ccc1O (configuration not stated),114 °C
12,CCCCCCCCCCCCc1cc(O)ccc1S,75 to 76 °C
13,CCCCCCCCCCCCCCCCCCOc1ccc(C(=O)C=Cc2ccc(SC)cc2)cc1,104 °C
14,COC(=O)c1cc(I)cn1[Si](C(C)C)(C(C)C)C(C)C,81 to 83 °C
15,CC(Sc1nc(SCc2ccccc2)n[nH]1)C(=O)O (configuration not stated),123 to 124 °C
16,Cc1cc(C(=O)Nc2ccn3cc(-c4ccccc4)nc3n2)cc(Cl)n1,148 to 151 °C
17,O=C(O)c1cc(NCc2c(F)c(F)c(C(F)(F)F)c(F)c2F)ccc1OC(=O)C1CCCCC1,190 to 193 °C
18,Cc1nnc2n1-c1ccc(Cl)cc1C(N1CCCC1)=NC2,222 to 225 °C
19,CCCC[C@H](NC(=O)[C@H](CCCC)NC(=O)OCc1ccccc1)C(=O)CSCc1ccco1,95 to 97 °C
20,C=CCNc1nc(NCC=C)nc(N2CCN(C(=S)n3ccnc3)CC2)n1,124 to 127 °C
21,COC(=O)CCC(=O)c1ccc(SC(=O)N(C)C)cc1,98 to 100 °C
22,CCCCOC(=Cn1ccnc1)c1ccc(Cl)cc1Cl,205 to 207 °C

# The next lines start with the values.
row,melting point,Structure (SMILES)
1,231 to 233 °C,CCN1CCN([C@@H]2c3cc(C#N)ccc3OC(C)(C)[C@H]2O)C1=NC#N (relative stereo)
2,219 to 221 °C,Cc1c(-c2ccccc2)n(-c2c(F)cccc2F)c(-c2ccccc2)cc1=O
3,211 to 212 °C,O=C(OCCN1C(=O)c2ccccc2C1=O)c1cccc2c(=O)c(OCCN3C(=O)c4ccccc4C3=O)c(-c3ccc(OCc4ccc5ccccc5n4)cc3)oc12
4,139 to 140 °C,CCOC(=O)c1c(CN2CCCC2)nc2cc(OC)c(OC)cc2c1-c1ccc(OC)c(OC)c1
5,182 to 185 °C,CC(C)N1CCN(Cc2ccc3c(c2)-c2[nH]nc(-c4ccsc4)c2C3)CC1
6,164 to 165 °C,CCCOCC1(C)CCCOc2cc(/C=C/c3ccc(C(=O)O)cc3)ccc21 (configuration not stated)
7,273 to 275 °C,O=C1N(Cc2ncccc2C(F)(F)F)c2ccccc2C12COc1c(Cl)cc3c(c12)OCCO3 (configuration not stated)
8,75 to 77 °C,COc1cc(C(=O)C(Br)CCC2CCCCC2)c(OC)cc1C (configuration not stated)
9,236 °C,COC(=O)Cn1c(C)cc(Cc2ccc(F)cc2)c(NC(=O)OCc2ccccc2)c1=O
10,149 °C,COCCC(=O)OC[C@@H]1CC(c2ccc(-c3ccc(N4C[C@H](Cn5ccnn5)OC4=O)cc3F)cn2)=NO1
11,> 300 °C,NC(=O)c1ccc(-c2nccc3[nH]c(=O)ccc23)cc1
12,86 to 87 °C,CCOC(=O)c1ccc(OCc2ccc3ccccc3c2)c(OC)c1
13,200 to 201 °C,CC1(C)CCC(C)(C)c2cc3c(cc21)OCC=C3Cc1ccc(C(=O)O)cc1
14,212 to 213 °C,CN(C)C(=O)Cn1c(-c2ccc(Cl)cc2)nc2cccnc21
15,94 to 95 °C,COC(=O)c1ccc(Cn2cnc3ccccc32)cc1
16,110 °C,COc1cc2c(cc1Nc1ncc(Cl)c(Nc3ccccc3S(=O)(=O)N3CCCC3)n1)CCN(CCO)CC2
17,181 to 182 °C,CC(=O)NC[C@H]1CN(c2ccc(N3CCC(=C(C)C#N)CC3)c(F)c2)C(=O)O1
18,202 to 204 °C,Cc1cc(COC2=NS(=O)(=O)c3ccccc32)sn1
19,148 to 151 °C,COc1nc(N)nc(-c2ccc(S(C)(=O)=O)cc2)c1-c1ccc(=O)n(C(C)C)n1
20,> 90 °C,CCCCc1nn(-c2cc(C(=O)N(C)CCCC)ccc2Cl)c(=O)n1Cc1ccc(-c2ccccc2S(=O)(=O)NC(=O)c2ccccc2Cl)cc1
21,153 to 156 °C,COc1ccc2c(c1)C1=C(SCC3(CCN(CC(O)COc4ccc(C(C)(C)C)cc4)CC3)O1)C(=O)C2=O (configuration not stated)
22,161 to 162 °C,CCOCc1nc2c(N)nc3cc(N4CCOCC4)ccc3c2n1CCCOC(C)C
23,124 °C,CN(c1cccc(C=C2c3ccccc3CCc3ccccc32)c1)S(C)(=O)=O
24,70 to 72 °C,CC(C)(C)OC(=O)N1CCCC1C(=O)Nc1ccc(-n2nc(C(F)(F)F)cc2C(F)(F)F)cc1 (configuration not stated)
25,195 to 196 °C,CCCOc1c(OCCCN2C(=O)c3ccccc3C2=O)cc(C2CCC(c3cc(OC)c(OC)c(OC)c3)O2)cc1S(=O)(=O)CCC (configuration not stated)
26,102 to 105 °C,CCC12CCC3=C(CCc4cc(OC)ccc43)C1CCC2O (configuration not stated)
27,104 to 106 °C,CCCN(CCC)C(=O)CCn1c(-c2ccc(Cl)cc2)nc2cccnc21

row,melting point,Structure (SMILES)
1,141 to 143 °C,C=CCOc1ccc(C(=O)N[C@@H](C)c2cccc3ccccc23)cc1
2,153 to 159 °C,COc1ccc(-c2cc(C(=O)NCCCCCCc3ccccc3)cc(-c3cccc(C(F)(F)F)c3)c2OCCO)cc1
3,220 to 221 °C,CC1(C)Oc2ccc(S(C)(=O)=O)cc2[C@@H](N2CCCS2(=O)=O)[C@@H]1O (relative stereo)
4,149 to 151 °C,CNc1c([N+](=O)[O-])ccc2c1OC(COS(=O)(=O)c1ccc(C)cc1)CO2 (configuration not stated)
5,162 to 163 °C,COC1=C(OC)C(=O)c2c(NC(C)=O)cccc2C1=O
6,197 to 200 °C,COC(=O)c1cn(-c2ccc(O)cc2C)c(C2CCC(Br)C(Br)C2)cc1=O (configuration not stated)
7,295 to 297 °C,N=C(NO)c1ccc(-c2cccc(-c3nc4cc(C(=N)NO)ccc4[nH]3)c2)nc1
8,186 to 188 °C,CCN1c2ncccc2C(=O)N(C)c2ccc(-c3cnn(C(C)=O)c3)nc21
9,257 to 260 °C,Cc1ccccc1C(=O)Nc1ccc(C(=O)N2CCc3cn(C)nc3-c3sccc32)cc1
10,85 °C,CCc1cc(OC)cc2nc(-c3ccc(OC)cc3)oc12
11,130 to 132 °C,CCOP(=O)(OCC)C(C)NC(=O)c1cc(C)cc(OC)c1C1=CC(=O)c2c(O)cccc2C1=O (configuration not stated)
12,56 to 58 °C,CCOC(=O)CC(=O)CC(c1ccccc1)c1ccc(OC)c(OC2CCCC2)c1 (configuration not stated)
13,201 to 205 °C,Cc1ccc(NCc2ccc(/C=C/C(=O)NO)cc2)cc1Nc1nccc(-c2cccnc2)n1
14,144 to 145 °C,COC(=O)C1CCN2C(=O)C(=O)c3cc([N+](=O)[O-])cc1c32 (configuration not stated)
15,182 to 185 °C,COc1ccccc1NC(=O)Nc1ccc(CC(=O)O)cc1OC
16,75 to 76 °C,COC(=O)C(=O)c1ccc(OCCOCCOc2ccccc2)cc1
17,113 °C,COc1cc(C(=O)c2ccccn2)cc([N+](=O)[O-])c1OC
18,78.2 to 78.5 °C,CCOC(=O)/C=C/c1ccc(OCCOC)cc1Oc1ncc(C(F)(F)F)cc1Cl
19,154 to 157 °C,Cn1cnc(COc2nc3c(cc2C(C)(C)C)nnn3-c2cc(F)ccc2F)n1
20,65 to 67 °C,CN(C(=S)Oc1ccc(Cl)c(C(C)(C)C)c1)c1ccccc1
21,55 to 56 °C,COc1cccc(CC(=S)N2CCCCC2)c1
22,138 to 139 °C,Cc1cnc(CSc2cc3ccccc3[nH]2)cc1N1CCCCC1
23,156 to 158 °C,CC(Oc1ccc(COc2ccc(Cl)cc2)cc1)C(=O)O (configuration not stated)
24,192 to 193 °C,CCOC(=O)Cc1sc(NC(=O)Nc2ccccc2)nc1-c1ccc(Cl)cc1
25,196 to 198 °C,C#CCN1C(=O)COc2cc(F)c(-n3nc4ccc(Cl)cn4c3=O)cc21
26,154 to 156 °C,CC(C)c1cc(C(=O)Nc2ccc(CC(=O)O)cc2)oc1C(C)C
